Data reported in patent publication US20010046979A1, “Acidic antimicrobial compositions for treating food and food contact surfaces and methods of use thereof” (priority 2000, published 2001).

How the values were obtained:
Experiment in all cases: Antimicrobial effectiveness on inoculated broccoli, 5 minute soak
Format in all cases: cell-based
E-Coli = conditions: 5 g/L
Description: (§1) Concentrated powdered compositions E and F are prepared and dissolved in deionized and hard water (10 gpg) at a level of 5 grams of composition per Liter of water to form a dilute aqueous treatment composition. The dilute aqueous treatment compositions are then tested on broccoli samples for antimicrobial effectiveness.
(§2) A Broccoli sample is innoculated with a bacterial solution containing ≧10^8 cfu bacterium per ml. Application of 100 microliters of this solution to the surface results in approximately 10^6 to 10^7 cfu per broccoli piece. Equal amounts of small spots are deposited to facilitate drying. After 30 minutes dry time the sample is placed in 50 ml of the dilute aqueous treatment composition for a 5 minute soak. After the 5 minute soak the sample is transferred to 50 ml of a neutralizer before being stomached for 2 minutes and subsequently plated to enumerate the organisms surviving the treatments. Suprisingly the acid-anionic system maintained equal or better antimicrobial activity vs. 200 ppm hypochlorite bleach over the range from 0 to 10 gpg, as shown by the data in the following Tables.

Staph aureus = conditions: 5 g/L
Description: as §1, §2

Listeria = conditions: 0 gpg water
Description: as §1, §2
(§3) Composition E is further tested on Salmonella and Listeria on broccoli with similar results.

Salmonella = conditions: 0 gpg water
Description: as §1, §2, §3

[Na+].[O-]Cl [200 ppm NaOCl, NaOCl]
Log Reduction (greater than water alone) in 5 minutes (E-Coli; 0 gpg water): 0.86 log | Log Reduction in 5 minutes (E-Coli; 0 gpg water): 1.2 log | Log Reduction (greater than water alone) in 5 minutes (E-Coli; 10 gpg water): 0.93 log | Log Reduction in 5 minutes (E-Coli; 10 gpg water): 1.3 log | Log Reduction (greater than water alone) in 5 minutes (Staph aureus; 0 gpg water): 1.08 log | Log Reduction in 5 minutes (Staph aureus; 0 gpg water): 1.5 log | Log Reduction (greater than water alone) in 5 minutes (Staph aureus; 10 gpg water): 0.89 log | Log Reduction in 5 minutes (Staph aureus; 10 gpg water): 1.3 log | Log Reduction (greater than water alone) in 5 minutes (Listeria): 0.77 log | Log Reduction (greater than water alone) in 5 minutes (Salmonella): 0.67 log
